Results published in patent publication US20110319392A1, “Thiazole Sulfonamide And Oxazole Sulfonamide Kinase Inhibitors” (priority 2009, published 2011).
Where a name gives a salt, the structure may show the parent alone.

How the values were obtained:
ErbB2 = target: T1, ErbB2 (Homo sapiens, UniProt P04626); assay: ErbB-2 substrate phosphorylation assay (HTRF); format: biochemical
T1 construct: made in house; host or cells: baculovirus expression system
In short: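 Baculovirus-expressed EGFR (0.8 nM) or ErbB2 (10 nM) in enzyme mix, preincubated 1 h at 20 °C with compound (0.00027–47.6 μM final), then 90 min at 20 °C with substrate mix of 20 μM ATP, 0.8 uM biotinylated Peptide C, MnCl2, MOPS pH 7.5. Phosphotyrosine by HTRF; pIC50 reported.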

Colo205 tumor cells = assay: Cell growth inhibition assay (CellTiter-Glo), Colo205; format: cell-based, Human; details: Homo sapiens, COLO 205, 72 h; 3 days incubation
In short: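 Cells plated at 500 cells/well in their growth media, dosed next day with nine-step 1:3 compound dilutions (final DMSO 0.2%), then incubated 3 days at 37° C, 5% CO2. Total ATP read by CellTiter-Glo luminescence as a surrogate for cell number; IC50 interpolated from 4-parameter fit versus DMSO controls.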

HT-29 tumor cells = assay: Cell growth inhibition assay (CellTiter-Glo), HT-29; format: cell-based, Human; details: Homo sapiens
In short: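 Readout was CellTiter-Glo luminescence (total ATP, surrogate for cell number) after 3-day exposure at 37° C, 5% CO2 to 1:3 serial compound dilutions in 0.2% final DMSO. Seeding was 500 cells/well; IC50 derived by 4-parameter fit relative to vehicle-treated wells.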

T1 sequence (P04626 23-1255): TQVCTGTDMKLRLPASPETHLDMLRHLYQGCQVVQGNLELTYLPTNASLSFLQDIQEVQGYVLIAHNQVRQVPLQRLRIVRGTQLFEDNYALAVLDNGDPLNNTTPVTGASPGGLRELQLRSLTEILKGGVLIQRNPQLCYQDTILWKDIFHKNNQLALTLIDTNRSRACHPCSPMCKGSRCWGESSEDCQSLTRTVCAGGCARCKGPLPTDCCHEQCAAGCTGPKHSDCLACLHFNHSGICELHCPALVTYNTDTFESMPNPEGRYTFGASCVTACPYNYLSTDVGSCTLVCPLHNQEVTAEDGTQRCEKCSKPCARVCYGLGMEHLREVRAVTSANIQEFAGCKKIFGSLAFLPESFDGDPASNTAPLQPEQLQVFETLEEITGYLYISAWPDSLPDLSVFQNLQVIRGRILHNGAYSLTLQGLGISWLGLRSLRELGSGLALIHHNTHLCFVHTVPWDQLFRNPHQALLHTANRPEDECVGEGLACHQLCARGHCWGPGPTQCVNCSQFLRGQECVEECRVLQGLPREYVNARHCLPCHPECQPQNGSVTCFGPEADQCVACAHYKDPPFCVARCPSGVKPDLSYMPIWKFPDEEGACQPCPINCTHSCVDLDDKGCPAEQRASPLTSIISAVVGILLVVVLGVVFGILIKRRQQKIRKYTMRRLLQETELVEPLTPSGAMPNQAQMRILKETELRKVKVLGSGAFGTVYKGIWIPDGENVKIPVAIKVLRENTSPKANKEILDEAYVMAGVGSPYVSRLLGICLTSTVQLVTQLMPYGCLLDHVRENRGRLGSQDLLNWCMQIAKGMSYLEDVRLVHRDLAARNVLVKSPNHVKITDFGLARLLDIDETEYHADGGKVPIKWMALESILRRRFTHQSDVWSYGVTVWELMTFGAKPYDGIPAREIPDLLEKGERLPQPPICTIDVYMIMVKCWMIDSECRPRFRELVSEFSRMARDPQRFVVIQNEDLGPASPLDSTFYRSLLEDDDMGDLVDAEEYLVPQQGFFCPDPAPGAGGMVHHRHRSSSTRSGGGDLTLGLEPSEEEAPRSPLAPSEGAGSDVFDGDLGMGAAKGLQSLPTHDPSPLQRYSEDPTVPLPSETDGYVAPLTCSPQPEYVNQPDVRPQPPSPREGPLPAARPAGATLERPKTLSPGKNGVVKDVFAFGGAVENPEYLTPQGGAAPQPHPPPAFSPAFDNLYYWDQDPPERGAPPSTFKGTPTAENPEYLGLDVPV

Structure (SMILES)	IC50 (ErbB2) [nM]	IC50 (Colo205 tumor cells) [nM]	IC50 (HT-29 tumor cells) [nM]
CC(C)c1nc(-c2cccc(NS(=O)(=O)c3c(F)cccc3F)c2)c(-c2ccnc(Nc3ccc(OC4CCN(CCS(C)(=O)=O)CC4)c(F)c3)n2)s1 [Example 13, 2,6-Difluoro-N-{3-[5-(2-{[3-fluoro-4-({1-[2-(methylsulfonyl)ethyl]-4-piperidinyl}oxy)phenyl]amino}-4-pyrimidinyl)-2-(1-methylethyl)-1,3-thiazol-4-yl]phenyl}benzenesulfonamide hydrochloride]	> 1000	< 100	100 to 1000
Cc1cc(N2CCOCC2)ncc1Nc1nccc(-c2sc(N3CCCC3)nc2-c2cccc(NS(=O)(=O)c3c(F)cccc3F)c2)n1 [Example 124]	100 to 1000	100 to 1000	> 1000
O=S(=O)(Nc1cccc(-c2nc(N3CCOCC3)sc2-c2ccnc(Nc3ccc(N4CCOCC4)nc3)n2)c1F)c1c(F)cccc1F [Example 122]	100 to 1000	< 100	< 100
CC(C)c1nc(-c2cccc(NS(=O)(=O)C3CCCCC3)c2)c(-c2ccnc(Nc3ccc(N4CCOCC4)c(F)c3)n2)s1 [Example 38]	100 to 1000	100 to 1000	> 1000
CC(C)c1nc(-c2cccc(NS(=O)(=O)c3c(F)cccc3F)c2F)c(-c2ccnc(Nc3cnc(N4CCOCC4)c(F)c3)n2)s1 [Example 30, 2,6-Difluoro-N-{2-fluoro-3-[5-(2-{[5-fluoro-6-(4-morpholinyl)-3-pyridinyl]amino}-4-pyrimidinyl)-2-(1-methylethyl)-1,3-thiazol-4-yl]phenyl}benzenesulfonamide]	> 1000	< 100	100 to 1000
CC(C)c1nc(-c2cccc(NS(=O)(=O)c3ccccc3)c2)c(-c2ccnc(Nc3ccc(N4CCOCC4)nc3)n2)s1 [Example 8, N-{3-[2-(1-Methylethyl)-5-(2-{[6-(4-morpholinyl)-3-pyridinyl]amino}-4-pyrimidinyl)-1,3-thiazol-4-yl]phenyl}benzenesulfonamide hydrochloride]	> 1000	< 100	100 to 1000
CS(=O)(=O)CCN1CCN(c2ccc(Nc3nccc(-c4oc(N5CCCC5)nc4-c4cccc(NS(=O)(=O)c5c(F)cccc5F)c4F)n3)cc2F)CC1 [Example 167]	< 100	< 100	< 100
CCNc1nc(-c2ccc(F)c(NS(=O)(=O)c3c(F)cccc3F)c2)c(-c2ccnc(Nc3ccc(N4CCOCC4)nc3)n2)s1 [Example 166]	< 100	100 to 1000	100 to 1000
COc1cc(N2CCN(CCS(C)(=O)=O)CC2)c(C)cc1Nc1nccc(-c2sc(C(C)(C)C)nc2-c2cccc(NS(=O)(=O)c3c(F)cccc3F)c2)n1 [Example 120]	< 100	< 100	100 to 1000
CC(C)c1nc(-c2cccc(NS(=O)(=O)c3c(F)cccc3F)c2)c(-c2ccnc(Nc3ccc(N4CCN(CCS(C)(=O)=O)CC4)c(F)c3)n2)s1 [Example 16, 2,6-Difluoro-N-{3-[5-{2-[(3-fluoro-4-{4-[2-(methylsulfonyl)ethyl]-1-piperazinyl}phenyl)amino]-4-pyrimidinyl}-2-(1-methylethyl)-1,3-thiazol-4-yl]ohenyl}benzenesulfonamide hydrochloride]	100 to 1000	< 100	< 100
CCOc1ccc(Nc2nccc(-c3sc(C(C)C)nc3-c3ccc(F)c(NS(=O)(=O)c4c(F)cccc4F)c3)n2)cc1N1CCN(CCF)CC1 [Example 98]	< 100	100 to 1000	> 1000
